From article PMC10622841, “Structural analysis of a bacterial UDP-sugar 2-epimerase reveals the active site architecture before and after catalysis” (The Journal of Biological Chemistry, 2023) come the findings set out here.

The target in assay [1] is T1, T. thermophilus 2-epimerase (Thermus thermophilus, UniProt Q72KY0).
T1 construct: gene TT_C0285; full length, recombinant in E. coli Rosetta2(DE3); tag-free (rTEV-cut N-terminal His tag); homodimer, 82 kDa by gel filtration
T1 sequence (Q72KY0 1-365): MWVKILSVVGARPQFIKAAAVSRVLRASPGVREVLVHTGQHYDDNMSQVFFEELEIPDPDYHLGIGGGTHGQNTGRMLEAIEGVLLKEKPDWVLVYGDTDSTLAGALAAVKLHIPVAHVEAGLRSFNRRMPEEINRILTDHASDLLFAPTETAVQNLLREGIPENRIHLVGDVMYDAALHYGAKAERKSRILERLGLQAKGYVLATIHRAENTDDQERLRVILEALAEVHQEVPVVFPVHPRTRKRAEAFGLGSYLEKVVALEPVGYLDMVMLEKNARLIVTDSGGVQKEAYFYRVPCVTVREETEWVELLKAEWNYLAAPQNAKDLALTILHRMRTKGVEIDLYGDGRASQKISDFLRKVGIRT
In words: discontinuous anion-exchange HPLC assay. Type of assay: biochemical. To be noted: allosteric activator; substrate UDP-GlcNAc3NAcA, pH 8.0, 37 °C, 44 μM enzyme.

Assay [2] deals with T2, T. thermophilus 2-epimerase (Thermus thermophilus, UniProt Q72KY0, D98N).
T2 construct: gene TT_C0285; full length, recombinant in E. coli Rosetta2(DE3); tag-free (rTEV-cut N-terminal His tag); homodimer, 82 kDa by gel filtration
T2 sequence (Q72KY0 entry or part of it D98N): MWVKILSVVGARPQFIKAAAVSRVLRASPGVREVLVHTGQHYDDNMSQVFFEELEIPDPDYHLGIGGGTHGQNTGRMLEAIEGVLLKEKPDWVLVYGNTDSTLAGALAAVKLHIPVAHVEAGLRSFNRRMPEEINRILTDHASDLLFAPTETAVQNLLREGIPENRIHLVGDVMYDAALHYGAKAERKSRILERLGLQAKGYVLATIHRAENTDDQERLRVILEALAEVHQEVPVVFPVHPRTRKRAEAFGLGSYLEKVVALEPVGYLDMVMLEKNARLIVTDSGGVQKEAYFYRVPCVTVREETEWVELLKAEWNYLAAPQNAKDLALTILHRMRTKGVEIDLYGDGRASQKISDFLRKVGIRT
In words: X-ray crystallography; HPLC and mass spectrometry of copurified ligand. To be noted: with UDP-GlcNAc3NAcA in the active site, pH 6.0-9.0. It counts as binding.

The target of assay [3] is T1, T. thermophilus 2-epimerase. Briefly: X-ray crystallography. Type of assay: binding. To be noted: active site; formed from UDP-GlcNAc3NAcA during crystallization; pH 5.0 and 9.0; C-terminal His tag.
Assay [4] deals with T2, T. thermophilus 2-epimerase. Briefly: X-ray crystallography. Type of assay: binding. To be noted: active site; pH 6.0-9.0; C- or N-terminal His tag.
For assay [5], the target named is T. thermophilus 2-epimerase, WT enzyme, tag-free (Thermus thermophilus HB27). Briefly: SEC; gel-filtration chromatography against standards (beta-amylase, acetyl CoA synthase, carbonic anhydrase, cytochrome c); conditions not given. In general terms: SEC sorts molecules by how far they enter the pores of the column.

For `CC(=O)N[C@H]1[C@@H](OP(=O)(O)OP(=O)(O)OC[C@H]2O[C@@H](n3ccc(=O)[nH]c3=O)[C@H](O)[C@@H]2O)O[C@H](CO)[C@@H](O)[C@@H]1O` [UDP-GlcNAc], in assay [1], the “discontinuous anion-exchange HPLC assay” value was “the addition of UDP-GlcNAc was required for the reactions to proceed”. Moreover, in assay [2] (allosteric pocket), the “X-ray crystallography; HPLC and mass spectrometry of copurified ligand” value was “UDP-GlcNAc3NAcA in the active site and UDP-GlcNAc in the auxiliary binding pocket”. Turning to `CC(=O)N[C@@H]1[C@@H](OP(=O)(O)OP(=O)(O)OC[C@H]2O[C@@H](n3ccc(=O)[nH]c3=O)[C@H](O)[C@@H]2O)O[C@H](C(=O)O)[C@@H](O)[C@@H]1NC(C)=O` [UDP-ManNAc3NAcA], the X-ray crystallography result in assay [3] is reported as “the product, namely UDP-ManNAc3NAcA, was observed in each subunit”.

As for `CC(=O)N[C@H]1[C@@H](OP(=O)(O)OP(=O)(O)OC[C@H]2O[C@@H](n3ccc(=O)[nH]c3=O)[C@H](O)[C@@H]2O)O[C@H](C(=O)O)[C@@H](O)[C@@H]1NC(C)=O` [UDP-GlcNAc3NAcA], the X-ray crystallography result in assay [4] was “each subunit of the dimer contained both UDP-GlcNAc3NAcA in the active site and UDP-GlcNAc”. For orientation: stoichiometry N means a count of units in the complex or per binding partner. In turn, “T. thermophilus 2-epimerase, WT enzyme, tag-free” gave a stoichiometry N in assay [5] of 2. For `O=c1ccn([C@@H]2O[C@H](COP(=O)(O)OP(=O)(O)O)[C@@H](O)[C@H]2O)c(=O)[nH]1` [UDP], the “X-ray crystallography; HPLC and mass spectrometry of copurified ligand” value in assay [2] (allosteric (auxiliary) pocket) was “UDP-GlcNAc3NAcA was bound in the active site and UDP in the auxiliary binding pocket”.
